The text below walks through data of patent US20190125753A1, “COMPOUNDS AND METHODS FOR INCREASING HEMATOPOIESIS” (University of Southern California, priority 2016, published 2019).

Where only a bound is given, the exact number is not on record here.

Assay [1] relates to H9 human embryonic stem cells. Put plainly: Maintenance of human ES cell pluripotency, 5 days. The note with it: 25 ng/ml Wnt3a; 500 nM YH249 or 200 nM YH250, 5 days, without FGF and TGF. It is filed as cell-based. The protocol: We also determined that IQ-1 indirectly, via binding to the PR72/130 subunit of PP2A, inhibited the p300/β-catenin interaction (Id). Therefore, we anticipated that YH249/250 should also maintain mESC pluripotency in a Wnt dependent manner. To test his, R1 mESCs were cultured under feeder free conditions in the presence or absence of YH249/250 for 5 days. […] Pluripotency markers, Oct4, Nanog, Sox2, SSEA-1 and ALP, were all expressed in the cells treated with Wnt3a and YH250 (FIG. 28b). Moreover, Wnt3a could be replaced with the selective GSK-3 inhibitor CHIR99021, which activates the Wnt signaling pathway (FIG. 28a, lower panel). […] In the event, similarly to ID-8, the combination of Wnt3a and YH249/250 provided morphologically undifferentiated colonies of H9 human embryonic stem cells (hESCs) without FGF and TGF (FIG. 28c). hPSC markers were detected by ALP staining and immunofluorescence (FIG. 28d). In addition to H9 cells, two other hESC lines and a human induced pluripotent stem (iPS) cell line could be also maintained undifferentiated morphology utilizing the same conditions (not shown).
Specifically, FIG. 28A-28D, show maintenance of ESC's pluripotency by YH249 and YH250. […] 28A, Typical colony morphologies of RI mouse ES cells cultured 5 days in [upper panel] […]

Assay [2] has as its target T1, CBP/γ-catenin interaction (Mus musculus, UniProt P45481).
T1 construct: bone marrow Sca-1posit cells were isolated with Anti-Sca-1 microbeads; from tissue; host or cells: bone marrow Sca-1 positive cells of female C57/Black mice dosed in vivo
Put plainly: Co-IP of bone marrow Sca-1posit cells from treated mice (anti-CBP). The note with it: YH250 2 mg/kg subcutaneously, 24 hrs. It is filed as in vivo. As for the experimental part:
YH250 was used in this study. Female C57/Black mice were administrated with either DMSO (solvent control) or YH250 (2 mg/kg) subcutaneously. 24 hrs later, bone marrow Sca-1posit cells were isolated with Anti-Sca-1 microbeads (Miltenyi Biotec, Cat#130-092-529) for co-immunoprecipitation (FIG. 4A). Cells were then lysed and incubated with either anti-CBP (A22) or anti-p300 (C20) antibodies. Then, the immunoprecipitation complex were electrophoresed and detected with antibodies to either β-catenin or γ-catenin. […] This confirms that YH250 directly disrupts the p300/catenin interaction thereby enhancing the CBP/catenin interaction in HSPCs.

The subject of the next assay is bone marrow cells. Put plainly: Radiation induced apoptosis, cleaved PARP FACS. It is filed as in vivo. To be noted: administered 18 hours before 5Gy radiation; 6 hours after radiation. As for the experimental part:
Since p300/-catenin antagonists such as YH250 up-regulate survivin gene expression, YH250 was tested for the ability to attenuate radiation induced cell apoptosis by detecting cleaved PARP (Poly ADP ribose polymerase-1) using anti-PARP antibody and FACS analysis (BD Bioscience, Cat#562253, anti-PARP clone F21-852). DMSO or YH250 were administrated 18 hours before 5Gy radiation. 6 hours after radiation, bone marrow cells were isolated and stained for cell surface markers (lineage markers, Sca-1, c-kit) and anti-PARP (FIG. 23A).

For the next assay, the system named is Wnt/β-catenin pathway. Put plainly: SuperTOPFLASH (STF1.1 Hek-293) Wnt/β-catenin-driven luciferase reporter. It is filed as cell-based. To be noted: Homo sapiens, HEK293; STF1.1 Hek-293; 1 hour pre-incubation, 10 mM LiCl 24 hours. As for the experimental part:
A. Wnt/β-Catenin Activity: The Initial SuperTOPFLASH Screen.
Hek293 cells were stably transfected with plasmid that contains multiple TCF/LEF fragments in front of Luciferase gene. Wnt/β-catenin activity was determined from luciferase expression levels. […] Briefly, stably transfected Hek-293, STFI.1 (Wnt/β-catenin-driven luciferase) and Survivin-Hek-293 (1 Kb Human survivin promoter-driven luciferase) cells were maintained in DMEM, 10% FBS, Pen/Strep with 400 μg/mL G418 or 2 μg/mL puromycin, respectively. To check the activity of ICG-001, YH249, and YH250, the cells were split into white-opaque 96-well plates at 10,000 cells per well and allowed to attach overnight. For SuperTOPLASH, the inhibitors were added to the cells and pre-incubated for 1 hour prior to stimulation with 10 mM Li Cl for 24 hours. Luciferase activity was read using BrightGlo (Promnega) luciferase substrate. For survivin/luc, the inhibitors were added to the cells and incubated for 24 hours prior to readout. To calculate IC5o values, the resulting curve was fitted to a four-parameter logistic model (4PL) using GraphPad Prism 5 software.
An endogenous human survivin 1 kb promoter was inserted before a luciferase gene. […] R1 and R2 were diversified in this study. Percent inhibition of luciferase activity was calculated according to the following equations; % inhibition of STF 1.1 reporter activity=(I−RLU(10 mM LiCl) treated/RLU(10 omM LiCl) vehicle×control)100, % inhibition of Survivin reporter activity=(1−RLUtreated/RLU vehicle control)×100. Error bars indicate the mean±SE of 3 separate experiments. Selectivity (FIG. 2H) was calculated by IC50 value for Survivin-Hek-293/IC50 value for STF 1.1.
In general terms: In a reporter assay the amount or activity of a reporter protein is the signal.

T1 sequence (P45481 2-2441 limits assumed): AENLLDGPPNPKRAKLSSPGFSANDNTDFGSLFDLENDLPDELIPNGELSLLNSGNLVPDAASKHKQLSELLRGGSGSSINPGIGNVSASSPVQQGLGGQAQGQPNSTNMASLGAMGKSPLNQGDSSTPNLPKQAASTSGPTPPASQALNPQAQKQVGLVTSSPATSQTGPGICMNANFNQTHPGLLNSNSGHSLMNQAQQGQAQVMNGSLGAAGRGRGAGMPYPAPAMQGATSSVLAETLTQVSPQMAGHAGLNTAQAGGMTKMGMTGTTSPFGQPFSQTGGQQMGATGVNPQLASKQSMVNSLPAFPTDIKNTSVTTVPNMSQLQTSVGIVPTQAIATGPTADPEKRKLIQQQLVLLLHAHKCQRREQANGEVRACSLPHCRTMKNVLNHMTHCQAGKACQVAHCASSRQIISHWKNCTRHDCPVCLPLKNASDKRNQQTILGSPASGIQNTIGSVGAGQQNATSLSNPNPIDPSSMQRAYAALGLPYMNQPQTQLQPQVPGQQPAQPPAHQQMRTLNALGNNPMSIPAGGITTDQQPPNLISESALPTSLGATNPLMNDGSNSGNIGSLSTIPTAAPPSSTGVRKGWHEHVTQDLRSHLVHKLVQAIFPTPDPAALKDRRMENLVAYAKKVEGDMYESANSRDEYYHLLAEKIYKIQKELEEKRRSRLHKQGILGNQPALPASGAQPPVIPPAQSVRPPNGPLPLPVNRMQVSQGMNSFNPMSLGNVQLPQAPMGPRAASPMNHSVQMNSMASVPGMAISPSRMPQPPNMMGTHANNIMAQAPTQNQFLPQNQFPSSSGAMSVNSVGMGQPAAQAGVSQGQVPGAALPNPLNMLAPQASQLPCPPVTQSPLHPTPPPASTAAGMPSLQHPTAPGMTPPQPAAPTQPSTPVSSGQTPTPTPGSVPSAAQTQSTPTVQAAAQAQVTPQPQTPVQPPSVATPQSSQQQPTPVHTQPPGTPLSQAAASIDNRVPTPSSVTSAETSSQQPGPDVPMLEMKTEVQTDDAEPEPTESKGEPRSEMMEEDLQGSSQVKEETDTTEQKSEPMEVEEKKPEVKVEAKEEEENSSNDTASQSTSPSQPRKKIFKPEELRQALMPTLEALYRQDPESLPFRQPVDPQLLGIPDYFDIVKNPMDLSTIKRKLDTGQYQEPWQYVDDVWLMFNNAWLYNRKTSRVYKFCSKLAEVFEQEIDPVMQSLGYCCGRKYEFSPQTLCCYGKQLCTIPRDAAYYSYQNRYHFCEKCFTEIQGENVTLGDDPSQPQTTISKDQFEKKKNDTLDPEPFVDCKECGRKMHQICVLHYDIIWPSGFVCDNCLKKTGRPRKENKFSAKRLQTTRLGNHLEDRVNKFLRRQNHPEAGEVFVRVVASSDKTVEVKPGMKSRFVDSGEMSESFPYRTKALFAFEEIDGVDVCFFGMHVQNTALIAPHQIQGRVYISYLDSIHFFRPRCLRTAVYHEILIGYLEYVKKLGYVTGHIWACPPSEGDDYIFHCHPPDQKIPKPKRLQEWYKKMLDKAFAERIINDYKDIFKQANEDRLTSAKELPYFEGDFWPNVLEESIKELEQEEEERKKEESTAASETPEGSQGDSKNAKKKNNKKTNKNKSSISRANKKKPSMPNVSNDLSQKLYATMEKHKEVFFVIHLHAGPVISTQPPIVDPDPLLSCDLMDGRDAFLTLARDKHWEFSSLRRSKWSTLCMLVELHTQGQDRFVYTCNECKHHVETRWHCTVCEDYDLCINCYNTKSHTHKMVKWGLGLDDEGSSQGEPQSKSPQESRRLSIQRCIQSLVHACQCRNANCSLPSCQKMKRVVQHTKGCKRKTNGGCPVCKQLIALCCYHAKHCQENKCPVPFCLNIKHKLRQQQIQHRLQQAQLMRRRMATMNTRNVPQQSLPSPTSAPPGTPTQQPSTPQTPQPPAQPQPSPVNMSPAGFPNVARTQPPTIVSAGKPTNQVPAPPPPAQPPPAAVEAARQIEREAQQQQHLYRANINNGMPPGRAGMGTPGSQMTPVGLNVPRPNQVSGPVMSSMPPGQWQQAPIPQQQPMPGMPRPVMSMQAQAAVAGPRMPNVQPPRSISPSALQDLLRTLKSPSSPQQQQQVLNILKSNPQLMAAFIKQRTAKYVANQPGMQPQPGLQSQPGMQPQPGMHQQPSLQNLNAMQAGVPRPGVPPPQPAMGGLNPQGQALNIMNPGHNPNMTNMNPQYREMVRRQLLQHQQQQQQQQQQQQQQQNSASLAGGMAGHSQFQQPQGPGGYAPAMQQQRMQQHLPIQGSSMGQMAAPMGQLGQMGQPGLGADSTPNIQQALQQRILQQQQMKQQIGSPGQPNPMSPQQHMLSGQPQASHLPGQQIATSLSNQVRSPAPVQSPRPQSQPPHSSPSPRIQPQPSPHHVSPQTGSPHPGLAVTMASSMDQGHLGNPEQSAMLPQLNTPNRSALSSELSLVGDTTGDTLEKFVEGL

`COc1cccc(CNC(=O)N2C3CN(Cc4cc(Cl)cc(Cl)c4N(C)C)C(=O)[C@H](Cc4ccc(O)cc4)N3C(=O)CN2C)c1OC` (stereo partly shown) [YH250]: the hESC pluripotency result in assay [1] was “maintain pluripotency”. In addition, in assay [2], the CBP/γ-catenin interaction entry is “promotes CBP/γ-catenin interaction”. In the assay on bone marrow cells, the “apoptosis (cleaved PARP) in LSK, lineage-negt and lineage-posit population” value is “significantly less apoptosis”. For the same molecule, the IC50 – broadly, the point on the concentration scale where inhibition reaches its midpoint – in the assay with Wnt/β-catenin pathway was less than 100 nM.
